Source: patent US8461364B2, “Polymorphs of (S)-3-aminomethyl-7-(3-hydroxy-propoxy)-3H-benzo[C][1,2]oxaborol-1-OL” (GlaxoSmithKline LLC, priority 2008, dated 2013)
Values belong to the compound of their own block, whether it stands above or below them.

Columns and labels:
Type in all cases: physicochemical
[1] = Form screen with competitive ripening experiments (Raman/XPRD grouping); conditions: for relative polymorph stability (additional studies incl. single crystal form screen): 48 solvents/solvent mixtures, four crystallization modes, room temperature
Method: Alternative methods for preparing polymorph form HCl1, form HCl2, form HCl4, and form HCl5 involve the use of a form screen procedure. The input material for the screen was a nonsolvated form of the hydrochloride salt of (S)-3-aminomethyl-7-(3-hydroxy-propoxy)-3H-benzo[c][1,2]oxaborol-1-ol. […] Screening was conducted in a total of 48 solvents/solvent mixtures using four different crystallization modes listed below. The solvents included water, methanol, 1-propanol, nitromethane, acetonitrile, dimethylsulfoxide, acetone, 2-butanone, dichloromethane, methyl acetate, […], ethyl acetate, chlorobenzene, tetrahydrofuran, 1,4-dioxane, isopropyl ether, toluene, cyclohexane, heptanes, 1-butanol, 2-propanol, trifluoroethanol, dimethyl carbonate, t-butyl methyl ether, isopropyl acetate, ethanol, 1-methoxy-2-propanol, cyclohexanone, dimethyl formamide, 2-methoxyethyl ether, methanol:5 vol % H2O, acetonitrile:5 vol % H2O, acetone:5 vol % H2O, tetrahydrofuran:5 vol % H2O, 2-propanol:5 vol % H2O, methanol:10 vol % H2O, acetonitrile:10 vol % H2O, acetone:10 vol % H2O, tetrahydrofuran:10 vol % H2O, dioxane:10 vol % H2O, 2-propanol:10 vol % H2O, isopropanol+10% dimethylsulfoxide, acetonitrile+10% dimethylsulfoxide, and n-methylpyrrolidone.
Vapor diffusions were also conducted in selected solvents. The four crystallization modes used were: • temperature-cycled ripening of slurries • rapid cooling of room-temperature solutions • room-temperature evaporation of solutions • vapor diffusion of solvent/anti-solvent combinations Characterization:
All samples from the screen were isolated and analyzed by Raman spectroscopy. The samples were then grouped based on Raman spectral match. Representative samples from each of the groups were further analyzed by additional analytical techniques as appropriate (XPRD, DSC, TG-IR, PLM, etc.).
The temperature-cycle, rapid cool, and vapor diffusion samples formed a single group (Group A/Input) based on Raman and XPRD analyses. Most evaporative samples also produced Group A. However, five additional groups (Group B, Group C, Group D, Group E, and Group F) were produced from evaporative and evaporative scale-up experiments based on Raman analyses. These groups were selected for further analysis and/or scale-up.
Group B was an evaporative experiment from nitromethane produced in very low yields (<3 mg). This sample was analyzed by Raman, XPRD, and DSC. Insufficient sample was present for TG-IR (thermogravimetric-infrared spectroscopy). Six scale-up experiments were set up and each produced an amorphous or oily solid. […]
Group C was produced from two evaporative experiments from acetone and 2-butanone in very low yields (<1 mg). This sample was analyzed by Raman, and insufficient sample was present for further analysis. […]

[2] = Storage of Form HCl5 (sealed vial / room temperature)
Method: A solution of isopropanol containing 20% water by volume was added to a vial containing approximately 25 mg of polymorph form HCl4. The resulting mixture was stirred as the temperature was cycled between 0 and 40° C. over the course of 48 hours. The solution was isolated by filtration and evaporated to dryness. The freshly isolated product was verified to be Form HCl5.

[3] = Thermogravimetric analysis (TGA); conditions: ramp 15° C./minute
Method: The sample pan was tared, and sample of (S)-3-aminomethyl-7-(3-hydroxy-propoxy)-3H-benzo[c][1,2]oxaborol-1-ol polymorph form HCl4 prepared in Example 2, Method-B, was placed in the pan. The temperature was ramped at a rate of 15° C./minute.
The TGA thermogram of polymorph form HCl3 was acquired using a TA Instruments Q500 Thermogravimetric Analyzer. The sample pan was tared, and sample of (S)-3-aminomethyl-7-(3-hydroxy-propoxy)-3H-benzo[c][1,2]oxaborol-1-ol polymorph form HCl3 prepared as described above was placed in the pan. The temperature was ramped at a rate of 15° C./minute. A weight-loss of 4.7% between 27 and 104° C. was observed and is associated with water-loss due to dehydration.

[4] = Differential scanning calorimetry (DSC); conditions: ramp 15° C./minute, loose lid aluminum pan
Method: Instrument: TA Instruments Thermal Analysis System, Model DSC Q100
Key Operating Parameters:
Module—DSC Standard Cell FC
Method 1: Equilibrate at 25.00° C.
The DSC thermogram was acquired using a TA Instruments Q100 Differential Scanning calorimeter, as indicated above. A sample of (S)-3-aminomethyl-7-(3-hydroxy-propoxy)-3H-benzo[c][1,2]oxaborol-1-ol polymorph form HCl4 prepared in Example 2, Method B, was accurately weighed out directly into an aluminum DSC pan. The pan was sealed by applying pressure by hand and pushing each part of the pan together (also known as a loose lid configuration). The temperature was ramped at a rate of 15° C./minute. An endothermic transition having an onset of 178.1° C. was measured, and is associated with a decomposition event.

[5] = Stability study: storage of the polymorph under ambient conditions, XRPD afterwards
From the text: The HCl1 polymorph, which was a hard bulky material, was placed in a closed Amber bottle and stored under ambient conditions. Four months later, the bottle was opened, and the hard bulky material was now a free flowing powder. An XRPD was taken of this free flowing powder.

stability of isolated form (Raman) ([1]; sample from very slow evaporation from acetone with 20% water): unstable and converted to Group E
form after storage ([2]; sealed vial, at least 7 days): conversion to Form HCl3
SMILES: Cl.NC[C@H]1OB(O)c2c(OCCCO)cccc21 [polymorph form HCl5, (S)-3-aminomethyl-7-(3-hydroxy-propoxy)-3H-benzo[c][1,2]oxaborol-1-ol.HCl]
stability on storage ([2]; stored at room temperature): unstable when stored at room temperature and converts to Form HCl3

weight-loss (water-loss due to dehydration) ([3]; between 27 and 104° C.): 4.7%
SMILES: Cl.NC[C@H]1OB(O)c2c(OCCCO)cccc21 [polymorph form HCl3, (S)-3-aminomethyl-7-(3-hydroxy-propoxy)-3H-benzo[c][1,2]oxaborol-1-ol.HCl]

relative polymorph stability (additional studies incl. single crystal form screen) [1]: most stable polymorph
relative polymorph stability (additional studies incl. single crystal form screen) ([1]; listed as input material): most stable form at room temperature
stability compared to other polymorphs of the HCl salt ([1]; physical and/or chemical stability, general statement): increased stability
onset of endothermic transition associated with a decomposition event [4]: 178.1 °C
relative polymorph stability ([5]; from conversion during four months storage at ambient conditions): more stable polymorph than HCl1
stepwise weight-loss (water-loss due to reversible chemical transformation) ([3]; between 162 and 214° C.): 6.4%
temperature beyond which further decomposition is observed [3]: > 214 °C
SMILES: Cl.NC[C@H]1OB(O)c2c(OCCCO)cccc21 [polymorph form HCl4, (S)-3-aminomethyl-7-(3-hydroxy-propoxy)-3H-benzo[c][1,2]oxaborol-1-ol.HCl]

SMILES: Cl.NC[C@H]1OB(O)c2c(OCCCO)cccc21 [polymorph form HCl1, (S)-3-aminomethyl-7-(3-hydroxy-propoxy)-3H-benzo[c][1,2]oxaborol-1-ol.HCl]
solid form after storage (XRPD) ([5]; closed Amber bottle, ambient conditions, four months): converted into the HCl4 form during storage
